Measured values: patent publication US9403813B2, “Azetidine amide derivatives as orexin receptor antagonists” (ACTELION PHARMACEUTICALS LTD, priority 2013, dated 2016)

How the values were obtained:
human orexin-2 receptor = human orexin-2 receptor (Homo sapiens (Human), UniProt O43614); test: Intracellular calcium measurements (FLIPR), antagonism of orexin-A response; assay type: cell-based; conditions: CHO cells expressing human orexin-2 receptor, 3 nM orexin-A, geometric mean if determined several times, read-out: IC50 OX2
Description: (§1) Antagonistic activities on both orexin receptors have been measured for each example compound using the following procedure:
(§2) In Vitro Assay: Intracellular Calcium Measurements:
(§3) Chinese hamster ovary (CHO) cells expressing the human orexin-1 receptor and the human orexin-2 receptor, respectively, are grown in culture medium (Ham F-12 with L-Glutamine) containing 300 μg/mL G418, 100 U/mL penicillin, 100 μg/mL streptomycin and 10% heat inactivated fetal calf serum (FCS). The cells are seeded at 20,000 cells/well into 384-well black clear bottom sterile plates (Greiner). The seeded plates are incubated overnight at 37° C. in 5% CO2. Human orexin-A as an agonist is prepared as 1 mM stock solution in MeOH:water (1:1), diluted in HBSS containing 0.1% bovine serum albumin (BSA), NaHCO3: 0.375 g/L and 20 mM HEPES for use in the assay at a final concentration of 3 nM.
(§4) Antagonists are prepared as 10 mM stock solution in DMSO, then diluted in 384-well plates using DMSO followed by a transfer of the dilutions into in HBSS containing 0.1% bovine serum albumin (BSA), NaHCO3: 0.375 g/L and 20 mM HEPES. On the day of the assay, 50 μL of staining buffer (HBSS containing 1% FCS, 20 mM HEPES, NaHCO3: 0.375 g/L, 5 mM probenecid (Sigma) and 3 μM of the fluorescent calcium indicator fluo-4 AM (1 mM stock solution in DMSO, containing 10% pluronic) is added to each well. The 384-well cell-plates are incubated for 50 min at 37° C. in 5% CO2 followed by equilibration at rt for 30 min before measurement.
(§5) Within the Fluorescent Imaging Plate Reader (FLIPR Tetra, Molecular Devices), antagonists are added to the plate in a volume of 10 μL/well, incubated for 120 min and finally 10 μL/well of agonist is added. Fluorescence is measured for each well at 1 second intervals, and the height of each fluorescence peak is compared to the height of the fluorescence peak induced by 3 nM orexin-A with vehicle in place of antagonist. The IC50 value (the concentration of compound needed to inhibit 50% of the agonistic response) is determined and may be normalized using the obtained IC50 value of an on-plate reference compound. Optimized conditions were achieved by adjustment of pipetting speed and cell splitting regime. The calculated IC50 values may fluctuate depending on the daily cellular assay performance. Fluctuations of this kind are known to those skilled in the art. In the case where IC50 values have been determined several times for the same compound, the geometric mean has been given.

human orexin-1 receptor = human orexin-1 receptor (Homo sapiens (Human), UniProt O43613); test: as above; assay type: cell-based; conditions: CHO cells expressing human orexin-1 receptor, 3 nM orexin-A, geometric mean if determined several times, read-out: IC50 OX1
Description: as §1, §2, §3, §4, §5

human orexin-1 receptor, sequence (O43613 whole entry): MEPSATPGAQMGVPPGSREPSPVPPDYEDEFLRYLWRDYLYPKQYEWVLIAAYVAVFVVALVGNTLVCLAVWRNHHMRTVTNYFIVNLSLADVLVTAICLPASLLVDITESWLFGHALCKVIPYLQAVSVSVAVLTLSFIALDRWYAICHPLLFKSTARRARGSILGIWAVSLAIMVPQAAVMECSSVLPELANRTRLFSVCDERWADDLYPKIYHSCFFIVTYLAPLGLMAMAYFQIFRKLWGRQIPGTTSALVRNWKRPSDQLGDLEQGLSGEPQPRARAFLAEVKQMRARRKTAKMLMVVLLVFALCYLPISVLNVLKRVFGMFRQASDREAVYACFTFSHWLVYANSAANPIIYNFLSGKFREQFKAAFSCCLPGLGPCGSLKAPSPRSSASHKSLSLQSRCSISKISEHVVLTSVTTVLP
human orexin-2 receptor, sequence (O43614 whole entry): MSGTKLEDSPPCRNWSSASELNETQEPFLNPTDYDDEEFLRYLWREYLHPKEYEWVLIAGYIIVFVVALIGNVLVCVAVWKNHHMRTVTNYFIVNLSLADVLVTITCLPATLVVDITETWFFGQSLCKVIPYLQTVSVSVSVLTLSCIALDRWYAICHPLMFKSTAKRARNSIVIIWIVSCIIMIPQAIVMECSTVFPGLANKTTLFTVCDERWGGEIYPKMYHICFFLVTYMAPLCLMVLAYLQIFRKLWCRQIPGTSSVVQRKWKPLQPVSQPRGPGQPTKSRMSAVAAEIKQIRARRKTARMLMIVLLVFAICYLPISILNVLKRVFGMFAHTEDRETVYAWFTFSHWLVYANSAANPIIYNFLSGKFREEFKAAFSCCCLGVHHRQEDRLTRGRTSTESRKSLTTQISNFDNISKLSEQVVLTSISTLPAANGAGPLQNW

| SMILES | IC50 (human orexin-2 receptor) [nM] | IC50 (human orexin-1 receptor) [nM] |
| --- | --- | --- |
| Cc1ccc(-n2nccn2)c(C(=O)N2CC[C@H]2c2nc(-c3ccccc3C)no2)c1 [Example 1, (5-Methyl-2-[1,2,3]triazol-2-yl-phenyl)-[(S)-2-(3-o-tolyl-[1,2,4]oxadiazol-5-yl)-azetidin-1-yl]-methanone] | 19 | 1220 |
| Cc1ccc(-n2nccn2)c(C(=O)N2CC[C@H]2c2nc(-c3cccc(F)c3C)no2)c1 [Example 2, {(S)-2-[3-(3-Fluoro-2-methyl-phenyl)-[1,2,4]oxadiazol-5-yl]-azetidin-1-yl}-(5-methyl-2-[1,2,3]triazol-2-yl-phenyl)-methanone] | 9 | 713 |
| Cc1ccc(-c2noc([C@@H]3CCN3C(=O)c3cc(C)ccc3-n3nccn3)n2)cc1 [Example 3, (5-Methyl-2-[1,2,3]triazol-2-yl-phenyl)-[(S)-2-(3-p-tolyl-[1,2,4]oxadiazol-5-yl)-azetidin-1-yl]-methanone] | 180 | 2110 |
| COc1ccccc1-c1noc([C@@H]2CCN2C(=O)c2cc(C)ccc2-n2nccn2)n1 [Example 4, {(S)-2-[3-(2-Methoxy-phenyl)-[1,2,4]oxadiazol-5-yl]-azetidin-1-yl}-(5-methyl-2-[1,2,3]triazol-2-yl-phenyl)-methanone] | 38 | 1300 |
| COc1cccc(-c2noc([C@@H]3CCN3C(=O)c3cc(C)ccc3-n3nccn3)n2)c1 [Example 5, {(S)-2-[3-(3-Methoxy-phenyl)-[1,2,4]oxadiazol-5-yl]-azetidin-1-yl}-(5-methyl-2-[1,2,3]triazol-2-yl-phenyl)-methanone] | 25 | 1190 |
| CCCOc1ccccc1-c1noc([C@@H]2CCN2C(=O)c2cc(C)ccc2-n2nccn2)n1 [Example 6, (5-Methyl-2-[1,2,3]triazol-2-yl-phenyl)-{(S)-2-[3-(2-propoxy-phenyl)-[1,2,4]oxadiazol-5-yl]-azetidin-1-yl}-methanone] | 115 | 472 |
| Cc1ccc(-n2nccn2)c(C(=O)N2CC[C@H]2c2nc(-c3cccc(Cl)c3C)no2)c1 [Example 7, {(S)-2-[3-(3-Chloro-2-methyl-phenyl)-[1,2,4]oxadiazol-5-yl]-azetidin-1-yl}-(5-methyl-2-[1,2,3]triazol-2-yl-phenyl)-methanone] | 10 | 120 |
| Cc1ccc(-n2nccn2)c(C(=O)N2CC[C@H]2c2nc(-c3c(C)cccc3F)no2)c1 [Example 8, {(S)-2-[3-(2-Fluoro-6-methyl-phenyl)-[1,2,4]oxadiazol-5-yl]-azetidin-1-yl}-(5-methyl-2-[1,2,3]triazol-2-yl-phenyl)-methanone] | 115 | 3430 |
| CCOc1c(F)cccc1-c1noc([C@@H]2CCN2C(=O)c2cc(C)ccc2-n2nccn2)n1 [Example 9, {(S)-2-[3-(2-Ethoxy-3-fluoro-phenyl)-[1,2,4]oxadiazol-5-yl]-azetidin-1-yl}-(5-methyl-2-[1,2,3]triazol-2-yl-phenyl)-methanone] | 10 | 134 |
| Cc1ccc(-n2nccn2)c(C(=O)N2CC[C@H]2c2nc(-c3cc(C)ccc3C)no2)c1 [Example 10, {(S)-2-[3-(2,5-Dimethyl-phenyl)-[1,2,4]oxadiazol-5-yl]-azetidin-1-yl}-(5-methyl-2-[1,2,3]triazol-2-yl-phenyl)-methanone] | 17 | 335 |
| Cc1ccc(-n2nccn2)c(C(=O)N2CC[C@H]2c2nc(-c3cc(F)cc(F)c3)no2)c1 [Example 11, {(S)-2-[3-(3,5-Difluoro-phenyl)-[1,2,4]oxadiazol-5-yl]-azetidin-1-yl}-(5-methyl-2-[1,2,3]triazol-2-yl-phenyl)-methanone] | 280 | 2320 |
| Cc1ccc(-n2nccn2)c(C(=O)N2CC[C@H]2c2nc(-c3ccc(F)c(F)c3)no2)c1 [Example 12, {(S)-2-[3-(3,4-Difluoro-phenyl)-[1,2,4]oxadiazol-5-yl]-azetidin-1-yl}-(5-methyl-2-[1,2,3]triazol-2-yl-phenyl)-methanone] | 187 | 2490 |
| Cc1cccc(-c2noc([C@@H]3CCN3C(=O)c3cc(C)ccc3-n3nccn3)n2)c1 [Example 13, (5-Methyl-2-[1,2,3]triazol-2-yl-phenyl)-[(S)-2-(3-m-tolyl-[1,2,4]oxadiazol-5-yl)-azetidin-1-yl]-methanone] | 40 | 1160 |
| Cc1ccc(-n2nccn2)c(C(=O)N2CC[C@H]2c2nc(-c3ccccc3Cl)no2)c1 [Example 14, {(S)-2-[3-(2-Chloro-phenyl)-[1,2,4]oxadiazol-5-yl]-azetidin-1-yl}-(5-methyl-2-[1,2,3]triazol-2-yl-phenyl)-methanone] | 40 | 1040 |
| Cc1ccc(-n2nccn2)c(C(=O)N2CC[C@H]2c2nc(-c3ccccc3OC(F)(F)F)no2)c1 [Example 15, (5-Methyl-2-[1,2,3]triazol-2-yl-phenyl)-{(S)-2-[3-(2-trifluoromethoxy-phenyl)-[1,2,4]oxadiazol-5-yl]-azetidin-1-yl}-methanone] | 15 | 116 |
| COc1c(F)cccc1-c1noc([C@@H]2CCN2C(=O)c2cc(C)ccc2-n2nccn2)n1 [Example 16, {(S)-2-[3-(3-Fluoro-2-methoxy-phenyl)-[1,2,4]oxadiazol-5-yl]-azetidin-1-yl}-(5-methyl-2-[1,2,3]triazol-2-yl-phenyl)-methanone] | 17 | 641 |
| COc1cc(C(=O)N2CC[C@H]2c2nc(-c3cccc(F)c3OC)no2)c(-n2nccn2)cc1C [Example 17, {(S)-2-[3-(3-Fluoro-2-methoxy-phenyl)-[1,2,4]oxadiazol-5-yl]-azetidin-1-yl}-(5-methoxy-4-methyl-2-[1,2,3]triazol-2-yl-phenyl)-methanone] | 9 | 439 |
| Cc1cc(C(=O)N2CC[C@H]2c2nc(-c3ccccc3OC(F)(F)F)no2)c(-n2nccn2)cc1C [Example 18, (4,5-Dimethyl-2-[1,2,3]triazol-2-yl-phenyl)-{(S)-2-[3-(2-trifluoromethoxy-phenyl)-[1,2,4]oxadiazol-5-yl]-azetidin-1-yl}-methanone] | 5 | 160 |
| COc1c(F)cccc1-c1noc([C@@H]2CCN2C(=O)c2ccc(C)cc2-n2nccn2)n1 [Example 19, {(S)-2-[3-(3-Fluoro-2-methoxy-phenyl)-[1,2,4]oxadiazol-5-yl]-azetidin-1-yl}-(4-methyl-2-[1,2,3]triazol-2-yl-phenyl)-methanone] | 9 | 44 |
| COc1c(F)cccc1-c1noc([C@@H]2CCN2C(=O)c2ccc(C)cc2-n2nccn2)n1 [Example 20, {(S)-2-[3-(3-Fluoro-2-methoxy-phenyl)-[1,2,4]oxadiazol-5-yl]-azetidin-1-yl}-(4-methyl-2-[1,2,3]triazol-2-yl-phenyl)-methanone] | 33 | 634 |
| Cc1cc(C(=O)N2CC[C@H]2c2nc(-c3cccc(F)c3C)no2)c(-n2nccn2)cc1C [Example 21, (4,5-Dimethyl-2-[1,2,3]triazol-2-yl-phenyl)-{(S)-2-[3-(3-fluoro-2-methyl-phenyl)-[1,2,4]oxadiazol-5-yl]-azetidin-1-yl}-methanone] | 4 | 173 |
| Cc1ccc(C(=O)N2CC[C@H]2c2nc(-c3cccc(F)c3C)no2)c(-n2nccn2)c1 [Example 22, {(S)-2-[3-(3-Fluoro-2-methyl-phenyl)-[1,2,4]oxadiazol-5-yl]-azetidin-1-yl}-(4-methyl-2-[1,2,3]triazol-2-yl-phenyl)-methanone] | 23 | 821 |
| COc1cc(C(=O)N2CC[C@H]2c2nc(-c3ccccc3OC(F)(F)F)no2)c(-n2nccn2)cc1F [Example 23, (4-Fluoro-5-methoxy-2-[1,2,3]triazol-2-yl-phenyl)-{(S)-2-[3-(2-trifluoromethoxy-phenyl)-[1,2,4]oxadiazol-5-yl]-azetidin-1-yl}-methanone] | 39 | 1420 |
| COc1cc(C(=O)N2CC[C@H]2c2nc(-c3cccc(Cl)c3C)no2)c(-n2nccn2)cc1F [Example 24, {(S)-2-[3-(3-Chloro-2-methyl-phenyl)-[1,2,4]oxadiazol-5-yl]-azetidin-1-yl}-(4-fluoro-5-methoxy-2-[1,2,3]triazol-2-yl-phenyl)-methanone] | 25 | 963 |
